Results as given in US20260124203A1, “CHEMICAL SYNTHETIC LETHALITY FOR ANTIMICROBIAL THERAPY” (priority 2024, published 2026).

Target: T1, FolE2 (Burkholderia thailandensis, UniProt Q2T7N4)
T1 construct: fused on or other part: N-terminal 6xHis tag from pET-28b(+) (NdeI/SacI)
Assay: biochemical
Parameters: species or system B. thailandensis
Settings: read-out: apparent Ki

Question: With `C=C1CC[C@H]2C(=C)CC[C@H]3C(=C)C(=O)O[C@@H]3[C@@H]12` [DHL, dehydrocostus lactone] as the compound, how does the Ki read?
Answer: Its Ki is 87 ± 21 µM.
